The values below come from BindingDB's records for PubMed 10565848 (Washington State University, 1999).

Values joined by “and” are separate entries in the source; they are usually repeats but may differ in a detail not shown here. Identical values can stand only once. Where a SMILES comes first, the peptide text is derived from it. [ ]: non-standard residue; d: D form. GABA = NCCCC(=O)O A value given as a limit tells only on which side of the number the result lay.

Sequence of Angiotensin-converting enzyme 2 (Q58DD0 whole entry): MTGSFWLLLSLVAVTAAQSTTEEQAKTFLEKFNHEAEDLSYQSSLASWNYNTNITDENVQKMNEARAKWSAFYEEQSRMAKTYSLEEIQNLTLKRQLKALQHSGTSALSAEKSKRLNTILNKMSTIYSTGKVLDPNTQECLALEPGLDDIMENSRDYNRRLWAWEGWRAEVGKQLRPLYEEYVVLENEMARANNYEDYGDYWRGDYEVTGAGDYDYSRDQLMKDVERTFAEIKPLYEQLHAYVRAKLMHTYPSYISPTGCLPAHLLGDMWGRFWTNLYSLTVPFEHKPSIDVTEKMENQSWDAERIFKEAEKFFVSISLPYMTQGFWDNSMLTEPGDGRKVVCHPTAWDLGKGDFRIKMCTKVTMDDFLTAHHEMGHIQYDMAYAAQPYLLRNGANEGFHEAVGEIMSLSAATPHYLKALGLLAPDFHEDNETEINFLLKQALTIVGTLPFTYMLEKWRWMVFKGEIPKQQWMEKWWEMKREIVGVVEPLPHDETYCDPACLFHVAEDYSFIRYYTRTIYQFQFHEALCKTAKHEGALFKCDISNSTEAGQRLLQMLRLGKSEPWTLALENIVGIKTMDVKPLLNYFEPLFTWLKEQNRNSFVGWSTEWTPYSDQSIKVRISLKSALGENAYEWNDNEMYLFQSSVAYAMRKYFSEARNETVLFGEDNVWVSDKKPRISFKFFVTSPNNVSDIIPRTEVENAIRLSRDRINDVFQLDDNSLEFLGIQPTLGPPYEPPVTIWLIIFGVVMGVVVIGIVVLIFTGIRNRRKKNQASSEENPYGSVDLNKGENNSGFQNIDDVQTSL

The experiment has as its target Angiotensin-converting enzyme 2 (Bos taurus, UniProt Q58DD0).
Turning to `Cc1cc(Cn2cnc3c2C[C@@H](C(=O)O)N(C(=O)C(c2ccccc2)c2ccccc2)C3)ccc1N`, the Ki (as a rule, the dissociation constant of the complex between target and ligand, obtained from inhibition or displacement) is more than 10000 nM.
In the case of `CC[C@H](C)[C@H](NC(=O)[C@H](Cc1ccc(O)cc1)NC(=O)[C@@H](N)C(C)C)C(=O)N[C@@H](Cc1cnc[nH]1)C(=O)N1CCC[C@H]1C(=O)N[C@@H](Cc1ccccc1)C(=O)O` it was 5.54 nM and 3.58 nM; in that of `CCC(C)[C@H](NC(=O)[C@@H]1CCCN1C(=O)[C@H](Cc1cnc[nH]1)NC(=O)[C@@H](NC(=O)[C@H](Cc1ccc(O)cc1)NC(=O)[C@@H](NC(=O)[C@H](CCCN=C(N)N)NC(=O)CNC)C(C)C)[C@@H](C)CC)C(=O)O` (stereo partly specified) [Ang II Ile8, Sar1], 1000 nM.
In the case of `CC[C@H](C)[C@H](NC(=O)[C@H](Cc1ccc(O)cc1)NC(=O)[C@@H](NC(=O)[C@H](CCCN=C(N)N)NC(=O)CNC)C(C)C)C(=O)N[C@@H](Cc1cnc[nH]1)C(=O)N1CCC[C@H]1C(=O)N[C@H](C(=O)O)C(C)O` (stereo partly specified) [Ang II Thr8, Sar1] it was 1000 nM; in that of `CC[C@H](C)[C@H](NC(=O)[C@H](Cc1ccc(O)cc1)NC(=O)[C@H](N)C(C)C)C(=O)N[C@@H](Cc1cnc[nH]1)C(=O)N1CCC[C@H]1C(=O)N[C@@H](Cc1ccccc1)C(=O)O` [Ang IV D-Val1], 1000 nM; in that of `CC[C@H](C)[C@H](NC(=O)[C@H](Cc1ccc(O)cc1)NC(=O)CCCN)C(=O)N[C@@H](Cc1cnc[nH]1)C(=O)N1CCC[C@H]1C(=O)N[C@@H](Cc1ccccc1)C(=O)O` [Ang IV Nor1] (H-[GABA]YIHPF-OH), 8.49 nM and 3.25 nM.
In the case of `CC[C@H](C)[C@H](NC(=O)[C@H](Cc1ccc(O)cc1)NC(=O)[C@@H](NC(=O)[C@H](CCCNC(=N)N)NC(=O)[C@@H](N)CC(=O)O)C(C)C)C(=O)N[C@@H](Cc1cnc[nH]1)C(=O)N[C@H](C)C(=O)O` [Ang(1-7) D-Ala7] (H-DRVYIH[dA]-OH) it was 1000 nM; in that of `CC[C@H](C)[C@H](NC(=O)[C@H](Cc1ccc(O)cc1)NC(=O)[C@@H](NC(=O)[C@H](CCCNC(=N)N)NC(=O)[C@@H](N)CC(=O)O)C(C)C)C(=O)N[C@@H](Cc1c[nH]cn1)C(=O)N1CCC[C@H]1C(=O)O` [Ang(1-7)], 1000 nM.
For `CC[C@H](C)[C@H](NC(=O)[C@H](Cc1ccc(O)cc1)NC(=O)[C@@H](NC(=O)[C@@H](N)CCCN=C(N)N)C(C)C)C(=O)N[C@@H](Cc1cnc[nH]1)C(=O)N1CCC[C@H]1C(=O)O` [Ang(2-7)], the affinity, expressed as Ki, was 33.5 nM.
The compound `CC(C)[C@H](N)C(=O)N[C@@H](Cc1ccc(O)cc1)C(=O)O` [Ang(3-4)] (H-Val-Tyr-OH) yielded a Ki of 1000 nM.
In the case of `CC[C@H](C)[C@H](NC(=O)[C@H](Cc1ccc(O)cc1)NC(=O)[C@@H](N)C(C)C)C(=O)O` [Ang(3-5)] (H-Val-Tyr-Ile-OH) it was 9.91 nM; in that of `CC[C@H](C)[C@H](NC(=O)[C@H](Cc1ccc(O)cc1)NC(=O)[C@@H](N)C(C)C)C(=O)N[C@@H](Cc1cnc[nH]1)C(=O)O` [Ang(3-6)] (H-VYIH-OH), 14.4 nM.
In the case of `CC[C@H](C)[C@H](NC(=O)[C@H](Cc1ccc(O)cc1)NC(=O)[C@@H](N)C(C)C)C(=O)N[C@@H](Cc1cnc[nH]1)C(=O)N1CCC[C@H]1C(=O)O` [Ang(3-7)] (H-VYIHP-OH) it was 10.5 nM; in that of `CC[C@H](C)[C@H](NC(=O)[C@H](Cc1ccc(O)cc1)NC(=O)[C@@H](N)C(C)C)C(=O)N[C@@H](Cc1c[nH]cn1)C(=O)N1CCC[C@H]1C(=O)N[C@@H](Cc1ccccc1)C(=O)N[C@@H](Cc1c[nH]cn1)C(=O)O` [Ang(3-9)] (H-VYIHPFH-OH), 7.17 nM.
In the case of `CC[C@H](C)[C@H](NC(=O)[C@H](Cc1ccc(O)cc1)NC(=O)[C@@H](N)C(C)C)C(=O)N[C@@H](Cc1c[nH]cn1)C(=O)N1CCC[C@H]1C(=O)N[C@@H](Cc1ccccc1)C(=O)N[C@@H](Cc1c[nH]cn1)C(=O)N[C@@H](CC(C)C)C(=O)O` [Ang(3-10)] (H-VYIHPFHL-OH) it was 18.8 nM; in that of `CC[C@H](C)[C@H](NC(=O)[C@H](Cc1ccc(O)cc1)NC(=O)[C@@H](N)C(C)C)C(=O)N[C@@H](Cc1cnc[nH]1)C(=O)N1CCC[C@H]1C(=O)N[C@@H](Cc1ccccc1)C(=O)N[C@@H](Cc1cnc[nH]1)C(=O)N[C@@H](CC(C)C)C(=O)N[C@H](C(=O)O)C(C)C` [Ang(3-11)] (H-VYIHPFHLV-OH), 117 nM; in that of `CC[C@H](C)[C@H](NC(=O)[C@@H](N)Cc1ccc(O)cc1)C(=O)N[C@@H](Cc1cnc[nH]1)C(=O)N1CCC[C@H]1C(=O)N[C@@H](Cc1ccccc1)C(=O)O` [Ang(4-8)] (H-YIHPF-OH), 1000 nM.
Regarding `CC[C@H](C)[C@H](NC(=O)[C@H](Cc1ccc(O)cc1)NC(=O)[C@@H](NC(=O)[C@@H](N)CCCN=C(N)N)C(C)C)C(=O)N[C@@H](Cc1c[nH]cn1)C(=O)N1CCC[C@H]1C(=O)N[C@@H](Cc1ccccc1)C(=O)O` [CAS_12687-51-3], the Ki was 63.2 nM and 36.8 nM.
In the case of `CCCCc1nc(Cl)c(CO)n1Cc1ccc(-c2ccccc2-c2nn[nH]n2)cc1` [NSC_3961] it was more than 10000 nM; in that of `CC[C@H](C)[C@H](NC(=O)[C@H](Cc1ccc(O)cc1)NC(=O)[C@@H](NC(=O)[C@H](CCCNC(=N)N)NC(=O)[C@@H](N)CC(=O)O)C(C)C)C(=O)N[C@@H](Cc1cnc[nH]1)C(=O)N1CCC[C@H]1C(=O)N[C@@H](Cc1ccccc1)C(=O)O` [NSC_439662], 411 nM and 581 nM.
In the case of `CCCC[C@H](N)C(=O)N[C@H](Cc1ccccc1)C(=O)NCCCCCC(N)=O` [NleYI-6-hexamide] it was 13.7 nM.
